Measurements published in US8716228B2, “GPR54 agonists or antagonists for treatment of diseases presenting behavioral abnormalities” (YEDA Research and Development Co. Ltd., priority 2009, dated 2014).

What was measured:
[1] = test system: offspring of poly I:C treated dams; experiment: PPI in offspring of poly I:C treated dams (mouse model for schizophrenia); format: in vivo
Method: Poly I:C administration. Rats or mice were bred, and the first day after copulation was defined as day 1 of pregnancy. On gestation day 15, pregnant animals were injected intravenously with 4.0 mg/kg poly I:C (Sigma-Aldrich, Israel) dissolved in saline, or an equivalent volume of saline as a control. Both rats and mice received the same protocol of poly I:C administration.
Prepulse Inhibition (PPI). PPI testing was performed within startle chambers purchased from Med Associates Inc (Med Associates, St. Albans, Vt., USA). PPI was analyzed as described previously (Kipnis et al., 2004). Briefly, during a period of acclimation, a 65-dB background noise was applied for 5-min, and continued throughout the test session. All sessions for testing of PPI consisted of startle trials (pulse alone, 40-ms, 120-dB), prepulse trials (prepulse 20-ms, 69, 73, 78, or 81 dB followed by a (100-ms delay) pulse), and no-stimulus trials. All sessions were presented in pseudo-random order. The average time between trials was 15 s (range 12-30 s). PPI was calculated as: % PPI=100−{[(startle response for prepulse+pulse)/(startle response for pulse-alone)]×100}. In all the experiments, there were no significant differences between groups in trials of startle reactivity to pulse alone, and in no-stimulation trials. Data from no-stimulation trials are not included in the results because the values obtained were negligible relative to values from trials containing startle stimuli. Reduced PPI is associated with schizophrenia-related behavior. The same protocol was used in mice and rats (FIG. 1A).
Kisspeptin treatment. Mice were injected i.p with 100 μl of 1/10/100 μM Kp-10 peptide (SEQ ID NO:3) (synthesized at the Weizmann Institute of Science, or Sigma-Aldrich, Israel) dissolved in PBS, 30 minutes before the PPI analysis.
The ability of a normal lymphocyte population to reverse abnormal PPI behavior in immune deficient mice, encouraged us to test whether immune cells derived from the offspring of poly I:C treated dams would reverse the abnormal behavior of SCID mice in the PPI test. […]

GPR54 = GPR54 (Mus musculus, UniProt Q91V45); details: in vivo; cited from earlier work
Sequence of GPR54 (Q91V45 whole entry): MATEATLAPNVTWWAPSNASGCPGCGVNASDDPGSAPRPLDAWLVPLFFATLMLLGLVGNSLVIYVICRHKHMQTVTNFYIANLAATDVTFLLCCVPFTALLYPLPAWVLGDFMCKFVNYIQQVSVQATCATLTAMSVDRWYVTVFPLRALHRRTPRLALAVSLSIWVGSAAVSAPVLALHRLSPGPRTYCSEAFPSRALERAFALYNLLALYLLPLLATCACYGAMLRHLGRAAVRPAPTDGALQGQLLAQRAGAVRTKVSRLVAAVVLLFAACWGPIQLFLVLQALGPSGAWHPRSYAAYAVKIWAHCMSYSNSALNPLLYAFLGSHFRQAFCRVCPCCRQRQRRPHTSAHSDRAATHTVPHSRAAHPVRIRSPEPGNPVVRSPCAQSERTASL

SCID mice = experiment: Radial arm water maze (RAWM); format: in vivo, mouse; details: i.p. 100 μl containing 100 μM at beginning of each of two days, vs PBS
Method: Radial arm water maze (RAWM). Mice were tested for two days on 6 radial arm water maze paradigm in a water pool, as described in Alamed et al. (2006). Briefly, mice received Kp-10 injection in the beginning of each day. On the first day, 15 trials were performed, in trials 1, 3, 5, 7, 9 and 11 the platform was visible, and in all other trials the platform was hidden. On the second day, 12 trials were performed, all of them with hidden platform. The time required to reach the platform and the number of errors (incorrect arm entries) in 1-min time period were recorded (FIG. 11A).
One of the cognitive malfunctions in schizophrenia is deficit in spatial learning and memory. To evaluate whether kisspeptine can improve spatial learning and memory, we studied its effect in the radial arm water maze (RAWM), a hippocampal dependent spatial learning and memory assay. In this task, the mouse must find a platform that is located at one of the six maze arms; the time required to reach the platform and the number of errors along the way are recorded (Alamed et al., 2006) (FIG. 11A). Since wild type mice perform well in this test, the ability of Kp-10 to improve their performance is very limited. Therefore we used immune deficient mice (severe combined immunodeficiency; SCID), which have cognitive deficit manifested by poorer performance in the RAWM test. […]

naive mice = experiment: Tail suspension test; format: in vivo, mouse; details: 100 μl of 100 μM, vs PBS
Method: Tail suspension test. The tail suspension apparatus was made of horizontal metal rod supported by a stand. Each mouse was suspended from its tail using adhesive tape, suspending each mouse individually. The immobility time was measured during a 6 min observation period, latency to first immobility and total immobility was calculated (FIG. 10A).
The results we presented above using the PPI paradigm only relate to the psychotic symptoms of schizophrenia. However, schizophrenia patients suffer from cognitive and negative symptoms as well (i.e depression). […] To address whether Kp-10 has an antidepressant potency we studied its effect in the tail suspension test, an established method for screening antidepressant-like activity in mice (Steru et al., 1985; Cryan et al., 2005). Naïve mice were treated with Kp-10 (SEQ ID NO:3; 100 μl of 100 μM) or PBS and were subjected to the tail suspension test, in which the mouse is suspended by the tail from a lever, and the movements of the animal are recorded (FIG. 10A). The latency to the first immobility was longer and the duration of the total immobility was shorter in the Kp-10 treated mice compared to PBS treated mice (FIGS. 10B-10C).

naive C57B1/6 mice = experiment: PPI in naive C57B1/6 mice; format: in vivo, mouse
Method: Prepulse Inhibition (PPI). PPI testing was performed within startle chambers purchased from Med Associates Inc (Med Associates, St. Albans, Vt., USA). […] Briefly, during a period of acclimation, a 65-dB background noise was applied for 5-min, and continued throughout the test session. All sessions for testing of PPI consisted of startle trials (pulse alone, 40-ms, 120-dB), prepulse trials (prepulse 20-ms, 69, 73, 78, or 81 dB followed by a (100-ms delay) pulse), and no-stimulus trials. All sessions were presented in pseudo-random order. The average time between trials was 15 s (range 12-30 s). PPI was calculated as: % PPI=100−{[(startle response for prepulse+pulse)/(startle response for pulse-alone)]×100}. […] Data from no-stimulation trials are not included in the results because the values obtained were negligible relative to values from trials containing startle stimuli.
Neurotensin receptor antagonist SR142948 (TOCRIS COOKSON LTD) was used at 100 μg/kg 60 min before the PPI analysis.
GnRH receptor antagonist Cetrorelix Acetate (Cetrotide™, Anaspec Inc. Fremont, Calif.). Control mice were administered the same volume of PBS.
To examine whether Kp-10 can elevate PPI in naïve mice in a dose dependent manner, we analyzed PPI in C57B1/6 mice that were injected i.p with 100 μl of 1/10/100 μM Kp-10 (SEQ ID NO:3).

In the case of YNWNSFGLRF—NH2 [Kp-10], the “PPI at adulthood (12 weeks)” value ([1]; single i.p. injection at adolescence (8 weeks), 100 μl containing 100 μM, vs PBS) is given as “did not exhibit abnormal PPI”, the PPI ([1]; treatment at adulthood (12 weeks) after onset, 100 μl of 100 μM, 30 min before PPI) is given as “improved the abnormal PPI” and the GPR54 activation (GPR54) is given as “activate GPR54 in vivo”. The “latency time to find the platform” value (SCID mice) was “improved”, the number of errors (SCID mice) was “reduced” and the “duration of the total immobility” value (naive mice) was “shorter”. For the same substance, the “latency to the first immobility” value (naive mice) was “longer”, the PPI (naive C57B1/6 mice; 100 μl of 1000 μM, small group, data not shown, vs PBS) was “no improvement was detected” and the PPI (naive C57B1/6 mice; female C57B1/6 mice, single dose 100 μl of 100 μM) was “significantly increased the PPI”. The “PPI 24 hours after administration (ANOVA of percent PPI)” value (naive C57B1/6 mice; male mice, 100 μl of 100 μM) was “no significant main effect of the treatment”, the “duration of the effect on PPI” value (naive C57B1/6 mice; male mice, 100 μl of 100 μM) was “less than 24 hours” and the “PPI after repeated injection” value (naive C57B1/6 mice; male mice, repeated injection 24 hours after the first) was “induced the elevation of the PPI again”. For the same substance, the “PPI after repeated injection” value (naive C57B1/6 mice; male mice, repeated injection 7 days after the first) was “induced the elevation of the PPI again”, the PPI at adulthood (naive C57B1/6 mice; naive animals, single injection at adolescence, vs PBS) was “no differences between the Kp-10 and the PBS treated mice” and the PPI (naive C57B1/6 mice; naive male mice, i.p. 100 μl of 1 μM, vs PBS) was “improved PPI but the improvement was not statistically significant”. For the same substance, the PPI (naive C57B1/6 mice; naive male mice, i.p. 100 μl of 10 μM, vs PBS) was “significantly increased PPI” and the PPI (naive C57B1/6 mice; naive male mice, i.p. 100 μl of 100 μM, vs PBS) was “significantly increased PPI”.
